Experimental data as given in patent publication US4804681A, “Metal complexes having an antineoplastic action and medicaments containing these complexes” (priority 1980, dated 1989).

What was measured:
[1] = tested on: sarcoma 180 tumor cells; assay: Sarcoma 180 tumor model (i.p.), median survival time T/C; type: in vivo, female NMRI mice; conditions: single dose
Procedure: 1. Sarcoma 180 tumor model
In each case about 10^6 sarcoma 180 tumor cells in 0.2 ml of physiological saline solution are transferred intraperitoneally (I.P.) to female NMRI mice which are about 6 weeks old and weigh 18 to 20 g. The tumor is kept in passage in the same mouse strain. The tumor cells are removed from freshly killed animals immediately before transplantation. On inoculation, the animals are randomized. 6 mice are used per dosage. Cisplatin and cyclophosphamide are used as the control substances. The number of control groups (untreated animals) is chosen such that it corresponds to about the square root of the total number of groups. The substances are injected intraperitoneally, in each case 24 hours after the transplantation, as suspensions in customary solubilizing agents, such as Tween® (polyoxyethylene derivatives of sorbitan esters).
The stated dose was administered once at the start of the experiment, as described. The factor T/C given in per cent denotes the percentage increase in median survival time of the treated animals compared with the median survival time of the untreated control animals. In some cases, the cure rate, that is to say the number of cured animals in relation to the number of treated animals, is given in the Table, in parentheses after the factor T/C.
The experiment is discontinued as soon as the median survival time T/C of the treated animals has reached 300% of the median survival time of the untreated animals. In calculating the median survival time, the animals still alive at the end of the experiment are taken as being dead at the end of the experiment.

[2] = tested on: Yoshida sarcoma cells; assay: subcutaneously transplanted Yoshida sarcoma, intravenous therapy; type: in vivo, female SD rats
Procedure: In a further experiment, about 5×10^6 Yoshida sarcoma cells were subcutaneously transplanted into female SD rats on day 0. In the second week, 4 mg/kg of dichlorobis(benzoylacetonato)titanium(IV) as a Tween® 60 coprecipitate (1:20) in aqueous solution were administered intravenously twice. […] The recidives were treated intravenously twice weekly with the original dose for four weeks.

[3] = tested on: sarcoma 180 cells; assay: subcutaneously transplanted sarcoma 180, intravenous therapy; type: in vivo, female mice; conditions: 4 mg/kg i.v. as Tween 60 coprecipitate (1:20), twice weekly for 4 weeks, from 2nd week
Procedure: In a further experiment, about 5×10^6 sarcoma 180 cells were subcutaneously transplanted into twelve female mice on day 0. From the 2nd week after the transplantation, six animals were given intravenous therapy with 4 mg/kg of dichlorobis(benzoylacetonato)titanium(IV) as a Tween® 60 coprecipitate (1:20) in aqueous solution, twice weekly for 4 weeks.

[4] = 4 mg/kg i.v. as Tween 60 coprecipitate (1:20), twice in second week

CC(=O)C=C([O][Zr]([Br])([O]C(=CC(C)=O)c1ccccc1)[O]C(=CC(C)=O)c1ccccc1)c1ccccc1 [Bromotris(benzoylacetonato)zirconium(IV)]
T/C (median survival time) ([1]; 92 mg/kg i.p.): 300%
T/C (median survival time) ([1]; 209 mg/kg i.p.): 297%
T/C (median survival time) ([1]; 471 mg/kg i.p.): 187%

CC(=O)[CH-]C(=O)c1ccccc1.CC(=O)[CH-]C(=O)c1ccccc1.[Br-].[Br-].[Ti+4] [Dibromobis(benzoylacetonato)titanium(IV)]
T/C (median survival time) ([1]; 5 mg/kg i.p.): 103%
cure rate (cured animals/treated animals) ([1]; 5 mg/kg i.p.): 0/6
T/C (median survival time) ([1]; 20 mg/kg i.p.): 115%
cure rate (cured animals/treated animals) ([1]; 20 mg/kg i.p.): 0/6
T/C (median survival time) ([1]; 50 mg/kg i.p.): 288%
cure rate (cured animals/treated animals) ([1]; 50 mg/kg i.p.): 1/6
T/C (median survival time) ([1]; 70 mg/kg i.p.): 300%
cure rate (cured animals/treated animals) ([1]; 70 mg/kg i.p.): 3/6
T/C (median survival time) ([1]; 100 mg/kg i.p.): 300%
cure rate (cured animals/treated animals) ([1]; 100 mg/kg i.p.): 3/6
T/C (median survival time) ([1]; 150 mg/kg i.p.): 300%
cure rate (cured animals/treated animals) ([1]; 150 mg/kg i.p.): 4/6
T/C (median survival time) ([1]; 215 mg/kg i.p.): 273%
cure rate (cured animals/treated animals) ([1]; 215 mg/kg i.p.): 1/6
T/C (median survival time) ([1]; 315 mg/kg i.p.): 300%
cure rate (cured animals/treated animals) ([1]; 315 mg/kg i.p.): 5/6

CC(=O)C=C([O][Hf]([Cl])([Cl])[O]C(=CC(C)=O)c1ccccc1)c1ccccc1 [Dichlorobis(benzoylacetonato)hafnium(IV)]
T/C (median survival time) ([1]; 114 mg/kg i.p.): 130%
T/C (median survival time) ([1]; 172 mg/kg i.p.): 267%
T/C (median survival time) ([1]; 246 mg/kg i.p.): 300%

CC(=O)[CH-]C(=O)c1ccccc1.CC(=O)[CH-]C(=O)c1ccccc1.[Cl-].[Cl-].[Ti+4] [Dichlorobis(benzoylacetonato)titanium(IV)]
recidives after three weeks (plum-sized) [2, 4]: two out of three animals
tumor regression [2, 4]: The tumor regressed
cured animals after first treatment ([2]; 4 mg/kg i.v. as Tween 60 coprecipitate (1:20), twice in second week, three animals): One animal was cured
cured animals after treatment of recidives ([2]; original dose i.v. twice weekly for four weeks, two animals with recidives): Both animals were cured
T/C (median survival time) ([1]; 4 mg/kg i.p.): 118%
cure rate (cured animals/treated animals) ([1]; 4 mg/kg i.p.): 0/6
T/C (median survival time) ([1]; 16 mg/kg i.p.): 115%
cure rate (cured animals/treated animals) ([1]; 16 mg/kg i.p.): 0/6
T/C (median survival time) ([1]; 41 mg/kg i.p.): 291%
cure rate (cured animals/treated animals) ([1]; 41 mg/kg i.p.): 2/6
T/C (median survival time) ([1]; 57 mg/kg i.p.): 179%
cure rate (cured animals/treated animals) ([1]; 57 mg/kg i.p.): 0/6
T/C (median survival time) ([1]; 82 mg/kg i.p.): 300%
cure rate (cured animals/treated animals) ([1]; 82 mg/kg i.p.): 4/6
T/C (median survival time) ([1]; 123 mg/kg i.p.): 212%
cure rate (cured animals/treated animals) ([1]; 123 mg/kg i.p.): 1/6
T/C (median survival time) ([1]; 177 mg/kg i.p.): 251%
cure rate (cured animals/treated animals) ([1]; 177 mg/kg i.p.): 1/6
T/C (median survival time) ([1]; 259 mg/kg i.p.): 300%
cure rate (cured animals/treated animals) ([1]; 259 mg/kg i.p.): 5/6
outcome of treatment [3]: cured at the end of therapy

CC(=O)[CH-]C(=O)c1ccccc1.CC(=O)[CH-]C(=O)c1ccccc1.[F-].[F-].[Ti+4] [Difluorobis(benzoylacetonato)titanium(IV)]
T/C (median survival time) ([1]; 4 mg/kg i.p.): 97%
cure rate (cured animals/treated animals) ([1]; 4 mg/kg i.p.): 0/6
T/C (median survival time) ([1]; 15 mg/kg i.p.): 115%
cure rate (cured animals/treated animals) ([1]; 15 mg/kg i.p.): 0/6
T/C (median survival time) ([1]; 38 mg/kg i.p.): 209%
cure rate (cured animals/treated animals) ([1]; 38 mg/kg i.p.): 1/6
T/C (median survival time) ([1]; 52 mg/kg i.p.): 300%
cure rate (cured animals/treated animals) ([1]; 52 mg/kg i.p.): 4/6
T/C (median survival time) ([1]; 75 mg/kg i.p.): 154%
cure rate (cured animals/treated animals) ([1]; 75 mg/kg i.p.): 0/6
T/C (median survival time) ([1]; 113 mg/kg i.p.): 300%
cure rate (cured animals/treated animals) ([1]; 113 mg/kg i.p.): 3/6
T/C (median survival time) ([1]; 162 mg/kg i.p.): 300%
cure rate (cured animals/treated animals) ([1]; 162 mg/kg i.p.): 4/6
T/C (median survival time) ([1]; 238 mg/kg i.p.): 300%
cure rate (cured animals/treated animals) ([1]; 238 mg/kg i.p.): 2/6
